Entries after “also recorded” stand apart in the source; their conditions may differ.

Results on four compounds are retold here after patent US9682928B2 (NeuroPro Therapeutics, Inc., priority 2009, dated 2017).

Type in all cases: in vivo
Assay [1] deals with Rat. Briefly: Cortical spreading depression (rat), IP administration.
The nature of assay [2]: Diuresis in rat (urine volume, sodium and potassium excretion). To be noted: for Diuresis as measured by increased urine output and Na+/K+ excretion: rat, through 8 hours post-dose. On the procedure: (§1) The animals were fasted overnight prior to dosing and had no access to drinking water prior to any pretreatment. Food and water were withheld through the terminal sample collection or for the first 6 hours of blood sample collection, where applicable. Prior to test article administration all animals were pretreated with a single IP dose of PBx. At approximately 5 to 6 minutes prior to dosing all animals received a single oral (PO) gavage dose of 0.9% Sodium Chloride for Injection, USP, at a dose volume of 15 mL/kg. The vehicle, DMSO, and the test articles, NTP-2024 and NTP-2006, were administered via a single IP dose at a dose volume of 1 mL/kg. Cumulative urine volume, sodium excretion, and potassium excretion graphs are illustrated in FIGS. 27, 28, and 29.
as §1, with “Animals” for “The animals”, “PBX.” for “PBx.”, “mL/g.” for “mL/kg.”, “compounds (e.g., NTP-2014)” for “articles, NTP-2024 and NTP-2006,”, “mL/kg.” for “mL/kg. Cumulative urine volume, sodium excretion, and potassium excretion graphs are illustrated in FIGS. 27, 28, and 29.”
as §1, with “Animals” for “The animals”, “0.15” for “15”, “FIG. 27 illustrates cumulative” for “Cumulative”, “volume.” for “volume, sodium excretion, and potassium excretion graphs are illustrated in FIGS. 27, 28, and 29.”
as §1, with “PBX.” for “PBx.”, “FIG. 28 illustrates cumulative” for “Cumulative urine volume,”, “excretion.” for “excretion, and potassium excretion graphs are illustrated in FIGS. 27, 28, and 29.”
as §1, with “PBX.” for “PBx.”, “FIG. 29 illustrates cumulative” for “Cumulative urine volume, sodium excretion, and”, “excretion.” for “excretion graphs are illustrated in FIGS. 27, 28, and 29.”

Assay [3] has as its system male Sprague Dawley rats. Briefly: Taxol-induced peripheral neuropathy (rat), mechanical allodynia (von Frey). As to conditions: for Pain relief as measured by mechanical allodynia: rat, IP, Day 32, 75 mg/kg (NTP-2014, NTP-2026). From the text:
In this study, an animal model of Taxol-induced sensory neuropathy was employed to evaluate the effects of the sponsor's test compounds, for response to tactile sensitivity using von Frey test of mechanical allodynia. […] Therefore, Taxol-induced mechanical allodynia was employed as the measured behavioral endpoint.
The test substance was homogenized and dispersed using a mortar and a pestle in 0.2% hydroxypropylmethylcellulose (HPMC) in physiological saline, which served as the vehicle. Test articles were administered intraperitoneally in dose volumes of 10 mL/kg body weight. Preparations were made freshly for each day of administration.
Prior to test article NTP-2024 and vehicle control group administration, rats were pretreated at 30 minutes and again at 10 minutes prior to test article administration with a general metabolic inhibitor, piperonyl butoxide (150 mg/kg i.p.) in DMSO, at a volume of 1 mL/kg.
The reference article, Gabapentin, was formulated in saline to a concentration of 100 mg/mL and delivered […] at a dose volume of 1 mL/kg body weight (for a dosing concentration of 100 mg/kg).
All animals were administered Taxol, 2 mg/kg, IP at a dose volume of 1 mL/kg, on Days 1, 3, 5 and 7.
On Day 32, all animals received a single intraperitoneal injection of test article or vehicle according to Tables 1 and 2. For group 1 (vehicle), rats were pre-treated with Piperonyl butoxide (150 mg/kg IP, dose volume of 1 mL/kg) at 30 minutes and again at 10 minutes prior to vehicle administration. Four animals in group 3 (NTP-2024) were also pre-treated with Piperonyl butoxide (150 mg/kg IP, dose volume of 1 mL/kg) at 30 minutes and again at 10 minutes prior to vehicle administration. Animals in Groups 2, 3, 4, & 5 were pre-treated with Saline (dose volume of 1 mL/kg, IP) at 30 minutes and again at 10 minutes prior to test article administration. With the exception of animals in group 2, the animals received an IP injection of vehicle or test article 30 min prior to mechanical allodynia testing. Animals were dosed at a volume of 10 mL/kg.
Animals in group 2, received an IP injection of Gabapentin 90 minutes prior to mechanical allodynia testing. Animals were dosed at a volume of 1 mL/kg.
All animals underwent von Frey testing for mechanical allodynia. On testing days, the animals were returned to the chambers and allowed approximately 15 minutes to explore their surroundings prior to testing. A series of filaments were applied to the left hind paw. A 2.0 g filament was first applied to the plantar surface, if the animal responded to the filament (by lifting its paw) then the next smaller filament was applied. […] This is repeated in an “Up down” method for four responses after the first initial change in response.
The original study design used thermal hyperalgesia as the main parameter for testing the ability of the test compounds to ameliorate the pain associated with the Taxol injection. The treatment inclusion was set at a 20% drop from baseline values as determined on Day 28. […] The study design was amended to use mechanical allodynia as the testing parameter. […] This changed the testing days from Day 28 to Day 31 for allodynia confirmation and Day 29 to Day 32 for testing the article efficacy. Additional animals were received to complete the group size designation. These animals were tested for mechanical allodynia only. The study was then further amended to remove the piperonyl butoxide as a pre-treatment for Group 3 (NTP-2024). […] Because this study was conducted in two portions, four (4) animals from Group 3 received the metabolic inhibitor and five (5) received Saline as a pre-treatment.
The group mean results were analyzed versus the vehicle control group using a two way ANOVA, followed by a Bonferroni post-hoc test. Individual groups were tested pre and post dose using a paired t-test.

Take `CCCCNc1cc(C(=O)O)cc(S(N)(=O)=O)c1Oc1ccccc1` [Bumetanide, reference compound]: the “Decrease in CSD events” value in assay [1] (10 and 30 mg/kg, p~0.05) was “CSD events (~30%) at 10 and 30”. Moreover, in assay [2] (bumetanide PO 30 mg/kg + PBx), the “Excretion of urine, sodium and potassium (FIG. 33)” value is listed as “substantial excretion”. Further, the Diuresis in rat result in assay [2] (pre-treatment with inhibitor) is given as “diuresis evident”.
For `CCCCN(CCCC)c1cc(C(=O)O)cc(S(N)(=O)=O)c1Oc1ccccc1` [NTP-2014, 3-Aminosulfonyl-5-N,N-dibutylamino-4-phenoxybenzoic acid], the “Change in CSD events” value in assay [1] (10 mg/kg IP, p < 0.05) is −38%; in assay [1] (50 mg/kg IP, p < 0.05), −37%; in assay [1] (75 mg/kg IP, p < 0.05), −47%. The “Urine output, sodium excretion and potassium excretion (FIG. 33)” value in assay [2] (NTP-2014 at 10, 50 or 100 mg/kg, PBx pretreated) is “does not differ appreciably from the vehicle control; also recorded: does not increase; also recorded: did not increase”. Also, the “Diuresis as measured by increased urine output and Na+/K+ excretion” value in assay [2] is “No diuresis as measured by increased urine output and Na+/K+”. The “Activity compared to GBP at 100 mg/kg” value in assay [3] (75 mg/kg) is “mechanical allodynia-equal to if not better activity”. In addition, the “Pain relief as measured by mechanical allodynia” value in assay [3] (75 mg/kg) is “significant improvement in allodynia; also recorded: significant treatment effect; also recorded: effective analgesic effects”.
Take `CCCCNc1cc(C(=O)NN2CCOCC2)cc(S(N)(=O)=O)c1Oc1ccccc1` [NTP-2024, N-Morpholinyl 3-Aminosulfonyl-5-N-butylamino-4-phenoxybenzamide]: the “Decrease in CSD events” value in assay [1] (300 mg/kg, co-administered general metabolic inhibitor (NS)) is 32% decrease in CSD events at. In addition, the figures for the Mean allodynia score in assay [3] (metabolic inhibitor pre-treatment removed) and in assay [3] (pre-treated with the metabolic inhibitor (PBx)) were 8.04 g and 14.92 g, respectively.
For `CCCCNc1cc(C(=O)N(C)CCCN(C)C)cc(S(N)(=O)=O)c1Oc1ccccc1` [NTP-2026, N-(3-(Dimethylamino)propyl)-N-methyl 3-Aminosulfonyl-5-N-butylamino-4-phenoxybenzamide], the “Decrease in CSD events” value in assay [1] (10-75 mg/kg, p < 0.05) is on record as “CSD events (~30-40%) at 10-75”. Moreover, the “Diuresis as measured by increased urine output and Na+/K+ excretion” value in assay [2] is “No diuresis as measured by increased urine output and Na+/K+”. Further, in assay [3] (group of nine rats), the “Animals with complete reversal of allodynia” value is on record as “Three of the nine animals”. Further, the “Pain relief as measured by mechanical allodynia” value in assay [3] (75 mg/kg) is given as “slight improvement; also recorded: Several animals demonstrated complete responses”.
